Legend:
[1] = test system: Oryza sativa; assay: Safener indices, ratio of compound effect of Oryza sativa (rice) growth rate to relieving activity against bensulfuron-methyl induced injury to Oryza sativa growth rate at 1 uM
[2] = test system: Oryza sativa; assay: Effect on Oryza sativa (rice) assessed as growth rate at 0.1 uM relative to control; assay type: organism-based; conditions: in vivo
[3] = test system: Oryza sativa; assay: Relieving activity against bensulfuron-methyl induced injury to Oryza sativa (rice) assessed as growth rate at 10 uM (Rbv = 46 to 53%); assay type: functional
[4] = Hydrophobicity, log K of the compound; assay type: physicochemical; conditions: octanol/water
[5] = test system: Oryza sativa; assay: Relieving activity against bensulfuron-methyl induced injury to Oryza sativa (rice) assessed as growth rate at 0.1 uM (Rbv = 46 to 53%); assay type: functional
[6] = test system: Oryza sativa; assay: Effect on Oryza sativa (rice) assessed as growth rate at 10 uM relative to control; assay type: organism-based; conditions: in vivo
[7] = test system: Oryza sativa; assay: Safener indices, ratio of compound effect of Oryza sativa (rice) growth rate to relieving activity against bensulfuron-methyl induced injury to Oryza sativa growth rate at 10 uM
[8] = test system: Oryza sativa; assay: Safener indices, ratio of compound effect of Oryza sativa (rice) growth rate to relieving activity against bensulfuron-methyl induced injury to Oryza sativa growth rate at 0.1 uM
[9] = test system: Oryza sativa; assay: Effect on Oryza sativa (rice) assessed as growth rate at 1 uM relative to control; assay type: organism-based; conditions: in vivo
[10] = test system: Oryza sativa; assay: Relieving activity against bensulfuron-methyl induced injury to Oryza sativa (rice) assessed as growth rate at 1 uM (Rbv = 46 to 53%); assay type: functional

| Structure (SMILES) | Activity [2] | log K [4] | Activity [6] | Activity [9] | Ratio [1] | Activity [3] | Activity [5] | Ratio [7] | Ratio [8] | Activity [10] |
| --- | --- | --- | --- | --- | --- | --- | --- | --- | --- | --- |
| CC(C)c1ccccc1NC(=O)N[C@@H](C)c1ccccc1 | 99% | 0.487 | 93% | 96% | 7 | 52% | 46% | 15 | 1 | 48% |
| CCCc1ccc(NC(=O)N[C@@H](C)c2ccccc2)cc1 | 97% | 0.602 | 73% | 76% | 47 | 69% | 66% | 50 | 30 | 68% |
| C[C@@H](NC(=O)Nc1ccccc1C(C)(C)C)c1ccccc1 | 100% | 0.535 | 17% | 95% | 24 | 40% | 58% | 34 | 15 | 61% |
| C[C@H](NC(=O)Nc1ccc(C(C)(C)C)cc1)c1ccccc1 | 100% | 0.673 | 64% | 88% | 37 | 68% | 52% | 53 | 4 | 65% |
| CCCCc1ccc(NC(=O)N[C@@H](C)c2ccccc2)cc1 | 98% | 0.76 | 60% | 72% | 50 | 56% | 60% | 37 | 21 | 68% |
| CCCCCCc1ccc(NC(=O)N[C@H](C)c2ccccc2)cc1 | 100% | 1.081 | 101% | 101% | 9 | 61% | 52% | 22 | 6 | 54% |
| CCCCCCCc1ccc(NC(=O)N[C@H](C)c2ccccc2)cc1 | 100% | 1.266 | 100% | 100% | 5 | 53% | 51% | 9 | 5 | 52% |
| C[C@@H](NC(=O)Nc1ccccc1C(F)(F)F)c1ccccc1 | 99% | 0.456 | 54% | 95% | 11 | 58% | 55% | 42 | 10 | 54% |
| C[C@H](NC(=O)Nc1ccccc1C(F)(F)F)c1ccccc1 | 97% | 0.456 | 97% | 98% | 40 | 92% | 56% | 85 | 12 | 70% |

Continued, in another order:

| Activity [2] | log K [4] | Activity [6] | Activity [9] | Structure (SMILES) | Ratio [1] | Activity [3] | Activity [5] | Ratio [7] | Ratio [8] | Activity [10] |
| --- | --- | --- | --- | --- | --- | --- | --- | --- | --- | --- |
| 74% | 0.58 | 44% | 61% | CC(C)c1cccc(NC(=O)N[C@H](C)c2ccccc2)c1 | 27 | 43% | 45% | 29 | 16 | 48% |
| 95% | 0.58 | 86% | 84% | CC(C)c1cccc(NC(=O)N[C@@H](C)c2ccccc2)c1 | 26 | 68% | 47% | 47 | 6 | 55% |
| 99% | 0.577 | 49% | 79% | CC(C)c1ccc(NC(=O)N[C@H](C)c2ccccc2)cc1 | 47 | 49% | 49% | 34 | 7 | 67% |
| 98% | 0.577 | 86% | 96% | CC(C)c1ccc(NC(=O)N[C@@H](C)c2ccccc2)cc1 | 69 | 79% | 57% | 66 | 21 | 83% |
| 33% | 0.602 | 35% | 31% | CCCc1ccc(NC(=O)N[C@H](C)c2ccccc2)cc1 | 20 | 38% | 32% | 24 | 18 | 33% |
| 101% | 0.535 | 100% | 99% | C[C@H](NC(=O)Nc1ccccc1C(C)(C)C)c1ccccc1 | 14 | 66% | 52% | 31 | 3 | 57% |
| 100% | 0.673 | 53% | 88% | C[C@@H](NC(=O)Nc1ccc(C(C)(C)C)cc1)c1ccccc1 | 35 | 57% | 58% | 42 | 15 | 64% |
| 100% | 0.76 | 28% | 32% | CCCCc1ccc(NC(=O)N[C@H](C)c2ccccc2)cc1 | 26 | 28% | 57% | 16 | 13 | 38% |
| 100% | 0.912 | 97% | 101% | CCCCCc1ccc(NC(=O)N[C@H](C)c2ccccc2)cc1 | 27 | 69% | 54% | 38 | 3 | 65% |
| 98% | 0.912 | 93% | 98% | CCCCCc1ccc(NC(=O)N[C@@H](C)c2ccccc2)cc1 | 16 | 71% | 55% | 43 | 9 | 59% |
| 99% | 1.081 | 99% | 100% | CCCCCCc1ccc(NC(=O)N[C@@H](C)c2ccccc2)cc1 | 11 | 61% | 51% | 25 | 6 | 54% |
| 100% | 1.266 | 99% | 99% | CCCCCCCc1ccc(NC(=O)N[C@@H](C)c2ccccc2)cc1 | 9 | 59% | 51% | 21 | 4 | 53% |
